According to patent US5705649A, “Protein staining compositions and methods” (Promega Corporation, priority 1995, dated 1998):

Experiments:
[1] = test system: Promega Mid-Range Molecular Weight Standards; assay: Detection of proteins during SDS-PAGE with Acid Blue 25 dyes; conditions: 0.01% (w/v) in cathode buffer (Example 23)
Description: Ten μl of each solution was loaded into lanes of the three gels, and they were placed into three separate Bio-Rad Miniprotean II gel apparati (Bio-Rad, Richmond, Calif., USA) with the cathode solutions containing 1.0, 0.75, or 0.5% (v/v) of the derivatized Acid Blue 25 preparation (unpurified). The samples were then fractionated within the gels by application of 15 mA of current per gel.

[2] = test system: Promega Mid-Range Molecular Weight Markers; assay: Sensitive post-electrophoretic detection of protein using purified NBODY dye
Description: A 12% SDS-PAGE gel was prepared as described in Example 27 and was loaded with dilute Promega Mid-Range Molecular Weight Markers (diluted and heated as in Example 27) to produce lanes which contained 100, 80, 60, 40, 20, 10 and 5 ng of protein per band. The gel was run in a BioRad Miniprotean II gel system at 50V for 1.5 hr. then 125V until the tracking dye reached the bottom of the gel. After the dye reached the bottom of the gel, the gel was removed from the apparatus and placed in 50 ml of 5% acetic acid, 20% ethanol.
The NBODY dye prepared as in Example 40 with n-dodecyl amine was purified by applying 2 ml of the NBODY-C12 reaction mixture from Example 40 3cm from one edge of a 25×25cm silica gel plate (Sigma Chemical Co., St. Louis, […]., USA). The plate was developed using a 6:1 ratio of tolulene:ethyl acetate. […]
After 30 minutes in the 5% acetic acid, 20 % ethanol, the gel was removed from that solution and replaced with a solution containing the purified NBODY-C12 stain with the following composition: one ml of purified NBODY-C12 solution was placed in 50 ml of 35% ethanol, 5% acetic acid. […] After one hour in the water solution, the gel was scanned on a Molecular Dynamics Fluoroimager (Molecular Dynamics, Sunnyvale, Calif.), which excites fluorescence with laser light of 483 nm wavelength.

[3] = test system: Promega Mid-Range Molecular Weight Standards; assay: Post-electrophoretic detection of protein using NBODY derivatives; conditions: crude dye solution in 5% acetic acid, 20% ethanol, one hour
Description: Promega Mid-Range Molecular Weight Standards were diluted and heated as described in Example 27 to produce solutions containing 125, 25, 5 and 1 ng of protein per band in 10 microliters of solution. A 10% Tris Glycine, precast polyacrylamid gel from Novex Corp. (San Diego, Calif., USA, Cat. No. EC 6075.) was loaded with 10 microliters of the just described, diluted molecular weight standard solutions in lanes so that two lanes, each with the same diluted standard solution, were separated by a blank lane. The gel was developed using conditions recommended by the manufacturer and following development, the gel was cut in the blank lane. The segments were placed in 50 ml of 5% acetic acid, 20% ethanol. Six hundred microliters of the NBODY-C12 reaction mixture from Example 40 was added to the solution with one of the segments of a pair (of lanes with the same protein molecular weight standard solution) and three hundred microliters of the NBODY-C16 reaction mixture from Example 40 was added to the solution with the other segment of the same pair. After one hour of incubation, the gel segments were photographed on a transilluminator as described in example 27. Protein bands were detected in the lanes containing the 125 and 25 ng of protein per band using this method and the crude dye solutions from Example 40.

| Structure (SMILES) | visibility of protein bands during electrophoresis [1] | visibility of protein bands ([2]; lanes of 100 to 5 ng per band) | detection limit ([2]; purified dye in 35% ethanol, 5% acetic acid, one hour, water one hour, Fluoroimager 483 nm) | lowest protein per band detected [3] [ng] |
| --- | --- | --- | --- | --- |
| Nc1c(S(=O)(=O)O)cc(Nc2ccccc2)c2c1C(=O)c1ccccc1C2=O [unmodified Acid Blue 25] | no protein bands were seen |  |  |  |
| CCCCCCCCCCCCNC(=O)CCCCCNc1ccc([N+](=O)[O-])c2nonc12 [NBODY-C12] |  | Protein bands were seen for all of the protein species in the lanes containing all protein concentrations | lower than 5 ng | 25 |
